Patent US12128129B2, “Lactobacillus plantarum for skin care” (SYMRISE AG, priority 2019, dated 2024)

What was measured:
HaCaT keratinocytes [1] = experiment: IL-8 release after IL-1alpha stimulation of pre-treated keratinocytes (ELISA); format: cell-based, human; settings: 48 h pre-treatment, then 30 ng/mL IL-1alpha for 8 h
Method: Anti-Inflammatory Effects of Lactobacillus plantarum HEAL 19 and HEAL 99 HaCaT keratinocytes were cultivated in 96-well plates using RPMI-A, medium sterile filtered with L-Glutamine, Capricorn, supplemented with 10% fetal calf serum (FCS), Capricorn. The plates were incubated at 37° C. and 5% CO2. After 24 hours starvation with cell culture medium (RPMI, 1% FCS) the cells were washed once. The anti-inflammatory substances/inactivated bacteria suspensions were suspended in starvation medium, applied and incubated for 24/48 h with parameters described above. […] To remove bacterial cells after pre-incubation all wells were washed with cell culture medium three times. IL-1alpha, Gibco, life technologies was dissolved in H2Odest, diluted in starvation medium and pipetted to wells, preferably at a concentration of 30 ng/mL. Alternatively, a heat inactivated Staphylococcus aureus (DSM799) suspension was used as pro-inflammatory agent in a concentration of 0.1 mg/mL-1 mg/mL dry mass. After 8 h incubation the supernatants were separated. All samples were stored at −80° C. until further analyses. IL-8 concentrations were measured with Human CXCL8/IL-8, DuoSet ELISA, Development Systems, R&D Systems. The experimental procedure was performed as described in the provided protocol. After calculating means of the duplicate/triplicate values and subtraction of the average zero standard optical density the calculation was done using four parameter logistic curve-fit for creating standard curves.

[2] = system: S. aureus (DSM799/ATCC6538); experiment: Inhibition of Staphylococcus aureus growth (growth curves, OD 620 nm); format: cell-based; settings: 0.1 and/or 0.05%, 16 h incubation
Method: Antimicrobial Effects of the Lactobacillus Strains Growth curves of various bacteria were measured photometrically at 620 nm. Inhibition of Staphylococcus aureus: 96-well MTP were prepared according to DIN58940-8 with autoclaved CASO medium (MERCK 1.05459) and test substances dissolved in DMSO or distilled water. The relevant wells were inoculated with S. aureus (DSM799/ATCC6538) using stock cultures maintained in 10% glycerin at −20° C. An inoculum of 1-6×10^6 cfu was added per well. Test substances were analyzed using three or four replicate wells during incubation at 37° C. for 16 hours. Growth curves were determined in each well via absorption at 620 nm using a Sunrise Photometer (Tecan, Austria) and Magellan Software. A concentration of 125 ppm farnesol and 4 ppm triclosan was used as positive control for growth inhibition, both pre-dissolved in DMSO (Merck 802912). For calculation, averages of detected absorptions were calculated and normalized with blank values. These OD values were plotted in function of time for graphical presentation.

[3] = system: HEPKp 3 dimensional skin models; experiment: Induction of hyaluronic acid in HEPKp 3D skin models (ELISA); format: cell-based, human; settings: 0.005% in cell culture medium, 8 days treatment
Method: Induction of Hyaluronic Acid Human epidermal keratinocyte progenitors (HEPKp) generated 3d human skin models were cultivated and systemically treated with test substances. Briefly, defined concentrations of test substances were added to cell culture medium and each skin model was treated in cell culture dishes for up to 9 days at 37° C. and 5% CO2. After the treatment, collected supernatants were stored at −80° C. until further analyses. Viability of the cells was controlled by MTT standard method. Hyaluronic acid concentrations were measured by TECOmedical hyaluronic acid plus ELISA. The experimental procedure was performed as described in the provided protocol.

HaCaT keratinocytes [4] = experiment: AMP gene expression in keratinocytes grown as mono-layer (real time PCR, TaqMan array); format: cell-based, human; settings: for induction of β-Defensin 3, calculated RQ-value: RQ >2 = relevant induction
Method: Effects of Lactobacillus Strains on AMP Gene Expression in Keratinocytes Grown as Mono-Layer
AMP inductions were measured with real time PCR analysis using Taq-Man® Array fast 96-well plates.
HaCaT keratinocytes were cultivated in EpiLife medium, cascade Biologics, Gibco, incl. HKGS, Gibco, life technologies. Test substances were diluted in equal medium and added in a volume of 2 mL per well on 6-well plates. All samples are tested on 100% confluent cells incubated at 37° C., 5% CO2. After 24 h incubation time all samples were removed and cells washed twice with Dulbecco's Phosphate Buffered Saline with Ca and Mg, Capricorn. RNA isolation was performed using RNeasy® Mini Kit, Qiagen. The procedure has been done as describes in the RNeasy Mini Handbook.
Cells were lysed and precipitated with ethanol, the homogenate was washed three times using the spin column and the mRNA was eluated with purified water. Depending on the sample the procedure was slightly adjusted.
RNA concentration was measured using μCuvetteG 1.0 and BioPhotometer, Eppendorf by measuring the absorption at 260 nm. Control values, like E260/280 or E260/230 were calculated simultaneously. Transcription was done with a minimum of 0.5-1 μg RNA per sample.
Reverse transcription was done using high capacity RNA-to-cDNA Kit, Applied Biosystems. The procedure was based on the provided protocol. All samples were incubated in a PCR Thermocycler, Biometra running 60 min at 37° C. for reverse transcription, followed by 5 min at 95° C. (enzyme inactivation) and holding temperature at 4° C. in reaction room.
Quantitative Real-Time PCR was done using StepOne Plus Fast Real Time PCR Instrument, Applied Biosystems. Initial steps of the RT-PCR included a first heating phase holding for 20 s at 95° C., followed by 40 cycles of cDNA denaturation for 3 s at 95° C. and annealing/elongation at 60° C. for 30 s.
Analysis was done by 2-ACT Method—in detail: • 1. Standardization of Ct values with reference-gen (HPRT) ΔCTvaluegene=CTvaluegene−CTvalueReferencegene (HPRT) • 2. Subtraction of ACT-value of control sample (untreated) and ACT-value (treated) ΔΔCTvaluegene=ΔCTvaluetreated−ΔCTvaluecontrol • 3. Calculation of RQ-Ratio (relative quantification-value) RQ−value=2^−ΔΔCT
A RQ-Value of >2 was defined as relevant induction of a gene.

[5] = system: 3D epidermis model system for dry skin; experiment: Barrier improving efficacy on SDS damaged 3D skin models for dry skin (TEM of intercellular lipid lamellae); format: cell-based; settings: 0.5% in a skin care formulation, topical, after SDS treatment
Method: Barrier Improving Efficacy on SDS Damaged 3D Skin Models for Dry Skin
For this purpose an in vitro study was performed on a 3D epidermis model system for dry skin. […] Disturbance of the epidermal barrier was measured as loss of intercellular lipid lamellae. The skin repair performance was determined by transmission electron microscopy (TEM) after treatment with L. plantarum HEAL 19 formulated in a cosmetic emulsion or placebo emulsion and then further cultivated to observe reformation of intercellular lipid lamellae.

ex vivo skin models = experiment: Skin barrier integrity (Rhodamine B) ex vivo after diesel particulate 1650b; format: cell-based, human; settings: L. plantarum HEAL 19 formulation vs placebo, stimulation with diesel particulate (1650b)
Method: Ex vivo trials were done by Cutech Srl, Italy. Effects of described Lactobacillus strains on various parameters were analyzed in ex vivo skin models. Human skin from abdominal plastic surgery was used. Applications of heat inactivated bacteria suspensions were done systemically or topically, in formulation or solved in cell culture medium Tape stripping may be used. Concentrations and incubation times may vary. Skin Barrier Integrity (Rhodamine B) Ex vivo skin models have been treated topically with the L. plantarum strains before the application of the diesel particulate (i.e. 1650b). All skin samples have been incubated at 35° C., 5% CO2 and environmental humidity. At the end of the experimental phase the skin samples have been harvested stained with Rhodaminde B, cryo-fixed and cut at the cryostat for consequent image acquisition and analysis. The analysis of Rhodamine B fluorescence has been performed within two sections of the epidermis area for each skin model. Images have been analyzed by evaluating the fluorescence through Image-J application (NIH, USA).

HaCaT keratinocytes [6] = experiment: IL-8 release after S. aureus stimulation of pre-treated keratinocytes (ELISA); format: cell-based, human; settings: 0.25 mg/mL, 48 h pre-treatment
Method: Anti-Inflammatory Effects of Lactobacillus plantarum HEAL 19 and HEAL 99 HaCaT keratinocytes were cultivated in 96-well plates using RPMI-A, medium sterile filtered with L-Glutamine, Capricorn, supplemented with 10% fetal calf serum (FCS), Capricorn. The plates were incubated at 37° C. and 5% CO2. After 24 hours starvation with cell culture medium (RPMI, 1% FCS) the cells were washed once. The anti-inflammatory substances/inactivated bacteria suspensions were suspended in starvation medium, applied and incubated for 24/48 h with parameters described above. Dexamethasone in a concentration of 10 μM was used as positive control. To remove bacterial cells after pre-incubation all wells were washed with cell culture medium three times. IL-1alpha, Gibco, life technologies was dissolved in H2Odest, diluted in starvation medium and pipetted to wells, preferably at a concentration of 30 ng/mL. Alternatively, a heat inactivated Staphylococcus aureus (DSM799) suspension was used as pro-inflammatory agent in a concentration of 0.1 mg/mL-1 mg/mL dry mass. After 8 h incubation the supernatants were separated. All samples were stored at −80° C. until further analyses. IL-8 concentrations were measured with Human CXCL8/IL-8, DuoSet ELISA, Development Systems, R&D Systems. The experimental procedure was performed as described in the provided protocol. […]

[7] = system: ex vivo human skin models; experiment: Epidermal filaggrin, involucrin and cytokeratin 14 immunostaining ex vivo; format: cell-based; settings: various concentrations, vs vehicle (DMSO)
Method: Ex Vivo Studies Ex vivo trials were done by Cutech Srl, Italy. Effects of described Lactobacillus strains on various parameters were analyzed in ex vivo skin models. Human skin from abdominal plastic surgery was used. Applications of heat inactivated bacteria suspensions were done systemically or topically, in formulation or solved in cell culture medium Tape stripping may be used. Concentrations and incubation times may vary. All data were processed in terms of mean, standard deviation and standard error of mean (SEM) for each treatment. Epidermal Filaggrin, Involucrin and Cytokeratin 14 For analyses, the models were immune-stained with the selected antibody filaggrin rabbit polyclonal [H-300], involucrin mouse monoclonal (SY5) and/or cytokeratin 14 (CK14) rabbit monoclonal (EPR17350). The amount of the antigen present in each slide was evaluated by estimating the intensity and the distribution of red dye within the epidermis. The obtained data were normalized for the length of the basal lamina.

[8] = system: HEPKp 3 dimensional skin models; experiment: Filaggrin release from HEPKp 3D skin models (ELISA); format: cell-based, human; settings: 0.05%, after 8 days, vs medium control
Source text: Induction of Moisturizing Factor Filaggrin in 3D Skin Models Three dimensional skin models derived from human epidermal keratinocyte progenitors (HEPKp) and were systemically treated with test substances in CnT-PR-3D medium for 4 to 9 days. The filaggrin release was detected in the media by ELISA, Enzyme-linked Immunosorbent Assay Kit for filaggrin, Cloud-Clone Corp.

[9] = system: ex vivo human skin models; experiment: IL-8 release of ex vivo human skin models after diesel particulate 1650b; format: cell-based; settings: topical cosmetic formulation containing L. plantarum HEAL 19, stimulation with diesel particulate (1650b)
Method: Ex Vivo Studies Ex vivo trials were done by Cutech Srl, Italy. Effects of described Lactobacillus strains on various parameters were analyzed in ex vivo skin models. Human skin from abdominal plastic surgery was used. Applications of heat inactivated bacteria suspensions were done systemically or topically, in formulation or solved in cell culture medium Tape stripping may be used. Concentrations and incubation times may vary. All data were processed in terms of mean, standard deviation and standard error of mean (SEM) for each treatment. Anti-Inflammatory Effects Above described ex vivo human skin models have been used to verify the anti-inflammatory potential of the L. plantarum strains. The models were treatment with a L. plantarum HEAL 19 cosmetic emulsion followed by the application of the external noxious agent and pollutant 1650b, simulating air pollution. At a selected endpoint, the organ cell culture medium has been withdrawn from wells and analyzed for IL-8 using Deluxe set Human IL-8 of Biolegend®, Inc.

[10] = 0.05%, 24 h, gene arrays, induction defined as RQ-value >2
[11] = 0.1 and 0.05% tested, 24 h treatment, HaCaT

C[C@@H]1C[C@H]2[C@@H]3CCC4=CC(=O)C=C[C@]4(C)[C@@]3(F)[C@@H](O)C[C@]2(C)[C@@]1(O)C(=O)CO [dexamethasone, reference compound]
IL-8 release reduced to, compared to not pre-treated IL-1alpha control (HaCaT keratinocytes [1]; 30 μM, positive control): 20.4%

Lactobacillus plantarum HEAL 19 (DSM 15313) [L. plantarum HEAL 19]
growth of S. aureus (optical density) [2]: growth inhibition effects | IL-8 release reduced to, compared to not pre-treated IL-1alpha control (HaCaT keratinocytes [1]; 0.25 mg/mL): 5.1% | hyaluronic acid release compared to the medium control [3]: 145% | induction of β-Defensin 3, calculated RQ-value (HaCaT keratinocytes [4]; 0.0125% L. plantarum HEAL 19, 24 h, HaCaT): 2.3 | gene expression of Calprotectin (HaCaT keratinocytes [4]; [10]): induced | gene expression of Lactotransferrin (HaCaT keratinocytes [4]; [10]): Significantly induced | gene expression of Peptidase inhibitor 3 (HaCaT keratinocytes [4]; [10]): Significantly induced | gene expression of Psoriasin (HaCaT keratinocytes [4]; [10]): Significantly induced | gene expression of RNase 7 (HaCaT keratinocytes [4]; [10]): Significantly induced | gene expression of Secretory leukocyte peptidase inhibitor (HaCaT keratinocytes [4]; [10]): Significantly induced | gene expression of β-Defensin 1 (HaCaT keratinocytes [4]; [10]): induced | gene expression of β-Defensin 3 (HaCaT keratinocytes [4]; [10]): Significantly induced | gene expression of β-Defensin 4 (HaCaT keratinocytes [4]; [10]): Significantly induced | induction of β-Defensin 3, calculated RQ-value (HaCaT keratinocytes [4]; 0.1% L. plantarum HEAL 19, 24 h, HaCaT): 243.6 | repair performance (length of intercellular lipid lamellae) [5]: increased repair performance | rhodamine B penetration (skin barrier integrity) (ex vivo skin models): reduction of rhodamine B penetration | IL-8 concentration in the medium reduced to, compared to only S. aureus stimulated control (HaCaT keratinocytes [6]): 31% | cytokeratin 14 (CK14) production ([7]; topical treatment): increased | involucrin production ([7]; topical treatment): increased | filaggrin release/contents ex vivo [7]: concentration dependent induction | filaggrin (FLG) release in medium [8]: 215% | IL-8 detection in cell culture medium reduced to, compared to placebo control [9]: 75%

Lactobacillus plantarum HEAL 99 (DSM 15316) [L. plantarum HEAL 99]
IL-8 release reduced to, compared to not pre-treated IL-1alpha control (HaCaT keratinocytes [1]; 0.1 mg/mL): 12.6% | hyaluronic acid release compared to the medium control [3]: 115% | induction of AMP coding gene Peptidase inhibitor 3 (HaCaT keratinocytes [4]; [11]): induced concentration dependently | induction of AMP coding gene Phospholipase A2 (HaCaT keratinocytes [4]; [11]): induced concentration dependently | induction of AMP coding gene RNase 7 (HaCaT keratinocytes [4]; [11]): induced concentration dependently | induction of AMP coding gene Secretory leukocyte peptidase inhibitor (HaCaT keratinocytes [4]; [11]): induced concentration dependently | induction of AMP coding gene β-Defensin 3 (HaCaT keratinocytes [4]; [11]): induced concentration dependently | filaggrin (FLG) release in medium [8]: 150%
